According to patent US9950074B2, “Composition and delivery vehicle for active agents and methods therefor” (Georg-August-Universität Göttingen Stiftung Öffenlichen …, priority 2012, dated 2018):

How the values were obtained:
[1] = test system: primary porcine choroid plexus epithelial cells (PCPEC); test: apical transport of 5MTHF in primary PCPECs; assay type: cell-based; conditions: PCPEC loaded with 25 nM [3H]5MTHF for 24 hours; 7 μM monensin
Method: Filter-grown PCPECs were loaded with 25 nM [^3H]5MTHF for 24 hours. Cells were then incubated with 7 μM monensin or left untreated. Radioactivity from medium samples was measured at the indicated time points. […] Data are means±s.e.m. of two independent experiments, each done in triplicate.
Porcine choroid plexus epithelial cells (PCPECs) were prepared basically as described previously (Hakvoort et al., 1998: J Neurochem 71, 1141-1150). Isolated PCPECs were seeded in laminin-coated transwell culture plates (0.4 μm pore size, Costar, Cambridge, Mass.) with a diameter of 12 mm using a seeding density of 20 mg wet tissue/cm2. The cell culture medium (DMEM-Ham's F-12, Biochrom, Berlin, Germany) was supplemented with 10% fetal calf serum, 4 mM glutamine, 5 μg/ml insulin, 100 U/mL penicillin and 100 μg/mL streptomycin. Cytosine arabinoside (20 μM) was added to suppress the growth of contaminating cells. After reaching confluence at days in vitro (DIV) 8, growth medium was replaced by serum-free culture medium (SFM) to support cell differentiation and improve barrier function. At DIV 10, the medium was replaced by folate-free RPMI medium (Invitrogen) without serum.
Filter-grown PCPEC were loaded with 25 nM [^3H]5MTHF for 24 hours. Subsequently, medium was changed and cells were treated with 7 μM monensin or left untreated.

[2] = test system: Z310 cells stably transfected with FRα; test: apical release (shedding) of [3H]5MTHF from filter-grown Z310 cells; assay type: cell-based; conditions: FRα-transfected Z310 cells loaded 1 h with [3H]5MTHF; 7 μM monensin or 0.5 mg/ml rat transferrin
Method: After three washing steps, cells were incubated with fresh RPMI medium containing either 7 μM monensin (Mon) or 0.5 mg/ml rat transferrin (Trans) or contained no supplementation. Samples from the apical and basolateral compartment were removed at the indicated time points. Subsequently, cells were lysed and radioactivity was measured in medium samples and cell lysates. Data are means±s.e.m. of three independent experiments.
For 5MTHF uptake and transport measurements in Z310 cells, 4.2*104 cells were seeded in laminin coated transwell culture plates (0.3 cm2 growth area, 0.4 μm pore size) in folate-free RPMI medium. To test the barrier function, dye permeability assays with lucifer yellow were performed. Cells were used for experiments when the permeability was below 1% per hour. […] Radioactivity in medium samples and cell lysates was measured in a liquid scintillation spectrometer.
FRα-transfected or vector-transfected Z310 cells were grown in a two chamber transwell system and [^3H]5MTHF was either given into the basolateral or apical compartment. After a 1 h incubation with [^3H]5MTHF the medium was replaced by fresh medium and the time-dependent emergence of [^3H]5MTHF in both compartments was detected.

[3] = test system: Z310 cells stably expressing FRα; test: [3H]5MTHF uptake with transporter inhibitors; assay type: cell-based, rat; conditions: 12.5 nM [3H]5MTHF, 1 hour at 37° C.
Method: Z310 cells stably expressing FRα were incubated with 12.5 nM [^3H]5MTHF alone or together with TC, MTX, PAH, probenecid and digoxin for 1 hour at 37° C. Subsequently, cells were lysed and intracellular radioactivity was measured.
We performed additional experiments to evaluate FRα-independent transport processes in Z310 cells at physiological MTHF concentration (12.5 nM). A couple of organic anion transporters are known to be expressed in Z310 cells (Halwachs et al., 2011). […] At this concentration MTX is known to block FR-mediated MTHF binding as well.

[4] = test system: primary mixed cortical cultures; test: internalization assay in primary mixed cortical cultures; assay type: cell-based, neonatal mice; conditions: 2 hours at 37° C.
Method: Disassociated neonatal cortices from postnatal day 0-2 mice were cultured in DMEM supplemented with 10% fetal calf serum, 1% GlutaMAX (Invitrogen), 100 U/mL penicillin and 100 μg/mL streptomycin on laminin- and poly-L-lysin-coated coverslips at 37° C. in 5% CO2. Medium was changed every 3-4 days. At DIV 7-14, mixed cortical cultures consisting of oligodendrocytes, cortical neurons and microglia on an astrocyte monolayer were obtained.
Mixed cortical cultures were obtained form neonatal mice and immediately plated on coverslips and incubated in the respective growth medium. Before the internalization assay, exosomes were purified from Z310 cells, stably transfected with FRα or vector and labelled with PKH26 and FA-FITC as described above. The uptake was performed by incubating the cell cultures with exosome dilutions for 2 hours at 37° C. and 5% CO2. Cells were then fixed, permeabilized and stained with the respective antibodies for immunofluorescence analysis.
We have unexpectedly disclosed FRα as exosomal cargo in the CSF. To further understand the biological function of this transport mechanism we injected exosomes derived from FRα-transfected or vector-transfected Z310 cells into the lateral ventricle of C57BL/6 mice. […] After incubating the cells for 2 hours at 37° C., cells were fixed and analyzed by immunofluorescence microscopy.

[5] = test system: primary rat choroids plexus epithelial cells; conditions: read-out: Km of FRα-dependent uptake; low extracellular folate concentrations; cited from earlier work
[6] = biological target: reduced folate carrier (RFC, SLC19A1) (Homo sapiens, UniProt P41440); conditions: read-out: influx Km of the RFC; cited from earlier work
Chain of reduced folate carrier (RFC, SLC19A1) (P41440 whole entry): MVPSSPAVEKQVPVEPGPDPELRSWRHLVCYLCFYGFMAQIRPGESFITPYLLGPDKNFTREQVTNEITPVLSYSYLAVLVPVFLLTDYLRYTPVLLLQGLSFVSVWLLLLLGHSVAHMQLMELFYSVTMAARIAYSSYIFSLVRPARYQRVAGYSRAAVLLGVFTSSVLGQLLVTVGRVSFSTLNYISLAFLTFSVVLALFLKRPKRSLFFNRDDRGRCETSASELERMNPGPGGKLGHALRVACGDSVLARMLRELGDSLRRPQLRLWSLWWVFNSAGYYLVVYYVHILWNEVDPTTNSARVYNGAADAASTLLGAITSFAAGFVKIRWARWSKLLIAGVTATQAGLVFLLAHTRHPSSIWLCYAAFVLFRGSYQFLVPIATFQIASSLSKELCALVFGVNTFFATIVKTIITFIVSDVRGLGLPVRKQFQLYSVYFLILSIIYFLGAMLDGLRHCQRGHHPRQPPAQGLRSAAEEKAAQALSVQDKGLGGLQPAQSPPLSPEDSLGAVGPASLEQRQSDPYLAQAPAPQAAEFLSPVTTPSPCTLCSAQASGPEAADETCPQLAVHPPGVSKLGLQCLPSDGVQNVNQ

Molecule: CC[C@@]1([C@@H]2O[C@@H]([C@H]3O[C@@](O)(CO)[C@H](C)C[C@@H]3C)C[C@@H]2C)CC[C@H]([C@]2(C)CC[C@]3(C[C@H](O)[C@@H](C)[C@@H]([C@@H](C)[C@@H](OC)[C@H](C)C(=O)O)O3)O2)O1 [monensin]
- enhancement of apical accumulation of [3H]5MTHF [1]: 33%
- increase of apical shedding of [3H]5MTHF [2]: 70%

Molecule: C[C@H]1O[C@@H](O[C@H]2[C@@H](O)C[C@H](O[C@H]3[C@@H](O)C[C@H](O[C@H]4CC[C@@]5(C)[C@H](CC[C@@H]6[C@@H]5C[C@@H](O)[C@]5(C)[C@@H](C7=CC(=O)OC7)CC[C@]65O)C4)O[C@@H]3C)O[C@@H]2C)C[C@H](O)[C@@H]1O [digoxin]
- effect on uptake of [3H]5MTHF [3]: none of the inhibitors reduced the uptake

Molecule: Folic acid conjugated to fluorescein isothiocyanate [FA-FITC]
- delivery of FA-FITC to cells ([4]; combined with FRα-positive exosomes): delivered to astrocytes
- internalization of FA-FITC by cells ([4]; free FA-FITC without exosomes): none of the cell types internalized free FA-FITC

Molecule: Nc1ccc(C(=O)NCC(=O)O)cc1 [p-aminohippuric acid]
- effect on uptake of [3H]5MTHF [3]: none of the inhibitors reduced the uptake

Molecule: CN(Cc1cnc2nc(N)nc(N)c2n1)c1ccc(C(=O)N[C@@H](CCC(=O)O)C(=O)O)cc1 [MTX, methotrexate]
- effect on uptake of [3H]5MTHF ([3]; inhibitor at 10 μM): significantly reduced 5MTHF uptake

Molecule: CCCN(CCC)S(=O)(=O)c1ccc(C(=O)O)cc1 [probenecid]
- effect on uptake of [3H]5MTHF [3]: none of the inhibitors reduced the uptake

Molecule: CN1c2c(nc(N)[nH]c2=O)NCC1CNc1ccc(C(=O)N[C@@H](CCC(=O)O)C(=O)O)cc1 (some centres unmarked) [5MTHF, 5-methyltetrahydrofolate]
- Km [5]: ~0.0095 µM
- Km [6]: 2 to 7 µM

B1: transferrin: rat transferrin (Rockland), known to induce exosome release from cells (protein, UniProt P12346 20-698, looked up)
Serotransferrin: VPDKTVKWCAVSEHENTKCISFRDHMKTVLPADGPRLACVKKTSYQDCIKAISGGEADAITLDGGWVYDAGLTPNNLKPVAAEFYGSLEHPQTHYLAVAVVKKGTDFQLNQLQGKKSCHTGLGRSAGWIIPIGLLFCNLPEPRKPLEKAVASFFSGSCVPCADPVAFPQLCQLCPGCGCSPTQPFFGYVGAFKCLRDGGGDVAFVKHTTIFEVLPQKADRDQYELLCLDNTRKPVDQYEDCYLARIPSHAVVARNGDGKEDLIWEILKVAQEHFGKGKSKDFQLFGSPLGKDLLFKDSAFGLLRVPPRMDYRLYLGHSYVTAIRNQREGVCPEGSIDSAPVKWCALSHQERAKCDEWSVSSNGQIECESAESTEDCIDKIVNGEADAMSLDGGHAYIAGQCGLVPVMAENYDISSCTNPQSDVFPKGYYAVAVVKASDSSINWNNLKGKKSCHTGVDRTAGWNIPMGLLFSRINHCKFDEFFSQGCAPGYKKNSTLCDLCIGPAKCAPNNREGYNGYTGAFQCLVEKGDVAFVKHQTVLENTNGKNTAAWAKDLKQEDFQLLCPDGTKKPVTEFATCHLAQAPNHVVVSRKEKAARVSTVLTAQKDLFWKGDKDCTGNFCLFRSSTKDLLFRDDTKCLTKLPEGTTYEEYLGAEYLQAVGNIRKCSTSRLLEACTFHKS
- increase of apical shedding of [3H]5MTHF [2]: 36%
